The record followed here is US7217413B1, “Use of novel agents inducing cell death in synergy with interferons” (priority 1998, dated 2007).

Residues, ends and D or L forms follow the SMILES beside them. *: point of attachment. Cbz = O=C(OCc1ccccc1)*; CH2F = FC*

In test [1] the test system is REF (T) PML cells. The test is described as follows: TUNEL test of cell death triggered by PML (ZnCl2 induction). The format is cell-based, rat. The method, then: (§1) The REF (T) and MEF (T) cells are rat and mouse embryonic fibroblasts immortalized by an SV4DT expression vector. […] For clonogenicity tests, the cells were transfected with 10 μg of SRαtkneo-PML or SRαkneo on culture dishes 10 cm in diameter and selected with neomycin (500 μg/ml). To obtain inducible clones, a pool of RET (T) cells was cotransfected with the plasmid pKSmMt-PML and a hygromycin resistance vector (DSP-Hygro). The resistant colonies were examined for the expression of PML after four hours of treatment with ZnCl2 (150 μM) and subjected to a second cycle of cloning by limiting dilution. Inducible CHO clones were constructed in a similar manner. The monocytes were prepared according to the method of Estaquier et al., 1997. Etoposide (used at 100 μM for 16 to 24 hours) was obtained from Biomol Research Laboratories, zVAD (benzyloxycarbonyl-Val-Ala-Asp fluoromethyl ketone, used at 250 μg/ml) is marketed by Bachem and rat IFNα by Access BioMedical. The human α-interferon was provided by Schering-Plough. The antibodies against the human PML protein are described in the article by Daniel et al., 1993. The Western blot experiments with the endogenous rat PML protein were carried out with the monoclonal antibody 5E10 which detects both rat PML and human PML.
The cells were treated for 2 hours with 150 μM of ZnCl2 (unless otherwise stated) in the presence or absence of heat-inactivated foetal calf serum, and then the cells were washed and incubated in a ZnCl2-free medium. The TUNEL test was carried out according to the manufacturer's instructions (Boehringer Mannheim, kit for detection of cell death in situ), with the exception of the fixing step (4% formaldehyde in phosphate PBS buffer for 10 minutes). The cellular DNA content was evaluated by incubating for 10 minutes in propidium iodide at 50 μg/ml, in the presence of Rnase A at 100 μg/ml at 4° C. […] The samples were analysed on a FACScan analyser (Lysis II software, Becton Dickinson). […] After centrifugation, 20 μl of supernatant and 180 μl of reaction buffer (100 mM Hepes, pH 7.4, 2% of glycerol, 5 mM DTT, 0.5 mM EDTA, 50 μM DEVD-pNA (Biomol Research Laboratories)) were mixed and the absorbence at 405 nm was measured after incubating for four hours at 37° C. […]
It is known that the execution of programmed cell death involves the proteolytic activation—of caspases which induce the phenotypic changes in apoptosis by cleavage of nuclear and cytoplasmic proteins (Salvesen et al., 1997). […] Unlike etoposide, no significant cleavage of the colorimetric caspase substrates, YVAD-pNa (class 1 caspase, Boehringer Mannheim) and DEVD-pNA (class 3 caspase, Boehringer Mannheim) after induction with PML could be detected (FIG. 2B).

Test [2] concerns REF (T) PML cells. The test is described as follows: Kinetics of synchronized cell death after ZnCl2 induction of PML. The format is cell-based, rat. The method, then:
The cells were treated for 2 hours with 150 μM of ZnCl2 (unless otherwise stated) in the presence or absence of heat-inactivated foetal calf serum, and then the cells were washed and incubated in a ZnCl2-free medium. The TUNEL test was carried out according to the manufacturer's instructions (Boehringer Mannheim, kit for detection of cell death in situ), with the exception of the fixing step (4% formaldehyde in phosphate PBS buffer for 10 minutes). The cellular DNA content was evaluated by incubating for 10 minutes in propidium iodide at 50 μg/ml, in the presence of Rnase A at 100 μg/ml at 4° C. Analysis of the expression of phosphatidylserine on the outer sheet of the cell membranes was carried out using Annexin-V-fluos labelling (Boehringer Mannheim) and a loss of mitochondrial polarity with Rhodamin 123 (molecular probes) according to the manufacturer's instructions. The samples were analysed on a FACScan analyser (Lysis II software, Becton Dickinson). […] After centrifugation, 20 μl of supernatant and 180 μl of reaction buffer (100 mM Hepes, pH 7.4, 2% of glycerol, 5 mM DTT, 0.5 mM EDTA, 50 μM DEVD-pNA (Biomol Research Laboratories)) were mixed and the absorbence at 405 nm was measured after incubating for four hours at 37° C. […]

The test system of a further test is Primary monocytes. The test is described as follows: Survival of primary monocytes exposed to α-interferon. Type of test: cell-based.
Test [3] deals with REF (T) PML cells. The test is described as follows: TUNEL test of cell death induced by IFNα. Type of test: cell-based, rat. Conditions: for cell death evaluated by TUNEL (positive TUNEL signal): with 1 000 U/ml of IFNα. As to the method:
as §1
The cells were treated for 2 hours with 150 μM of ZnCl2 (unless otherwise stated) in the presence or absence of heat-inactivated foetal calf serum, and then the cells were washed and incubated in a ZnCl2-free medium. The TUNEL test was carried out according to the manufacturer's instructions (Boehringer Mannheim, kit for detection of cell death in situ), with the exception of the fixing step (4% formaldehyde in phosphate PBS buffer for 10 minutes). The cellular DNA content was evaluated by incubating for 10 minutes in propidium iodide at 50 μg/ml, in the presence of Rnase A at 100 μg/ml at 4° C. Analysis of the expression of phosphatidylserine on the outer sheet of the cell membranes was carried out using Annexin-V-fluos labelling (Boehringer Mannheim) and a loss of mitochondrial polarity with Rhodamin 123 (molecular probes) according to the manufacturer's instructions. The samples were analysed on a FACScan analyser (Lysis II software, Becton Dickinson). For the cleavage of the substrate with caspases, 5×10^6 cells were washed in PBS buffer, and incubated for one hour at 4° C. in 200 μl of lysis buffer (10 mM Hepes, pH 7.4, 2 mM EDTA, 2 mM DTT, 0.1% CHAPS). After centrifugation, 20 μl of supernatant and 180 μl of reaction buffer (100 mM Hepes, pH 7.4, 2% of glycerol, 5 mM DTT, 0.5 mM EDTA, 50 μM DEVD-pNA (Biomol Research Laboratories)) were mixed and the absorbence at 405 nm was measured after incubating for four hours at 37° C. The anti-PARP polyclonal antibody SA-252 is marketed by Biomol Research Laboratories.
The table below represents the cell death, evaluated by TUNEL, of REF (T) PML cells treated for two days with 1 000 U/ml of IFNα and 10^−6 M of As2O3 or of zVAD.

In a further test the test system is PML protein. The test is described as follows: Western blot of PML protein expression and location on nuclear bodies. Type of test: cell-based, rat. Conditions: REF (T) cells.
Setting [4] is: treated for two days, 10^-6 M of As2O3 or of zVAD.

Protocol for PML protein: The REF (T) and MEF (T) cells are rat and mouse embryonic fibroblasts immortalized by an SV4DT expression vector. […] The Western blot experiments with the endogenous rat PML protein were carried out with the monoclonal antibody 5E10 which detects both rat PML and human PML.

For the compound `[Cl-].[Cl-].[Zn+2]` [ZnCl2], the “positive cells / positive TUNEL signal” value with REF (T) PML cells [1] (ZnCl2 alone) worked out at 45%. The “time to synchronized cell death of the whole cell population” value in the test on REF (T) PML cells [2] (50 μM of ZnCl2) is 48 h; with REF (T) PML cells [2] (150 μM of ZnCl2) it was “six”.
As for `COC(=O)C[C@H](NC(=O)[C@H](C)NC(=O)[C@@H](NC(=O)OCc1ccccc1)C(C)C)C(=O)CF` [zVAD, benzyloxycarbonyl-Val-Ala-Asp(O-methyl) fluoromethyl ketone] (Cbz-Val-Ala-Asp(OMe)-CH2F), the “time to death of the whole cell population” value in the test on Primary monocytes (zVAD added with α-interferon) is not above 24 h. The “cell death with zVAD alone” value is recorded as “induced the death of part of the culture” in the test on Primary monocytes (zVAD alone after seven days, three cultures out of eleven) and “Little or no cell death” in the test on Primary monocytes (zVAD alone for 20 days, most of the primary cultures (8/11)). Besides, in the test on REF (T) PML cells [3] (setting [4]), the “cell death evaluated by TUNEL (positive TUNEL signal)” value worked out at 60%. For the same compound, in the test with REF (T) PML cells [3] (without IFNα, treated for two days, 10^-6 M of As2O3 or of zVAD), the “cell death evaluated by TUNEL” value worked out at 5%. In addition, the “effect on cell death induced by PML” value with REF (T) PML cells [1] (ZnCl2 induction, FIG. 1C) is given as “does not inhibit cell death induced by PML”. Also, the “effect on apoptosis induced by etoposide” value in the test on REF (T) PML cells [1] (etoposide-treated cells, FIG. 1C) is “blocks apoptosis induced by etoposide”. Moreover, in the test with REF (T) PML cells [1] (zVAD and ZnCl2), the “positive TUNEL signal” value amounted to 71%. Moreover, in the test with PML protein, the “levels of expression of PML” value is listed as “increased”.
In the case of IFNα, the “time to complete disappearance of the cell culture” value in the test on Primary monocytes (α-interferon alone (1 000 U/ml)) is “seven”. Moreover, the “kinetics of cell death induction” value in the test on REF (T) PML cells [3] (compared with ZnCl2 induction) is “same kinetics as 50 μM ZnCl2”. The “cell death evaluated by TUNEL (positive TUNEL signal)” value with REF (T) PML cells [3] (setting [4]) is recorded as 42%; in the test with REF (T) PML cells [3] (treated for two days, 10^-6 M of As2O3 or of zVAD, listed as α-interferon), 42%. Besides, the “levels of expression of PML” value in the test with PML protein was “induces rat PML”.
